Earlier results on 2 compounds are cited in patent publication US20230142073A1 (priority 2020, published 2023).

Read-outs that look alike come from different tables or passages of the source.

Data set [1] has as its system SARS-CoV-2 infected patients presenting with Severe Acute Respiratory Distress Syndrome (SARDS). The following applies: 10 ppm NO inhaled; baseline 102.
For data set [2], the system named is human patients with a coronavirus (SARS-CoV-2) infection.
The subject of data set [3] is Sars-Cov-2 ARDS patients. The conditions noted are these: iv 2 μg/kg/min; in the following 6 hours; 19 patients; baseline 79; p-value=0.001.
Data set [4] concerns person with a SARS-CoV-2 infection and Severe Acute Respiratory Distress Syndrome (SARDS). The conditions noted are these: iv 4 μg/kg/min; for PaO2: baseline 63; for PaO2/FiO2: baseline 70.
The test system of data set [5] is SARS-CoV-2 infected patients, exhibiting Acute Respiratory Distress Syndrome (ARDS). The conditions noted are these: iv 10 μg/kg/min, mean maintenance 1.65 μg/kg/min.
Where [6] appears, read: 10 patients, iv 4 then 12 μg/kg/min.
The mark [7] stands for this setting: 1 hour after almitrine infusion.
Setting [8] is: 2 hours after almitrine infusion.
Where [9] appears, read: 12 hours after almitrine infusion.

As to `[N]=O` [NO, Nitric Oxide], the “median PaO2/FiO2 after NO” value in data set [1] was 124 mmHg.
Consider `C=CCNc1nc(NCC=C)nc(N2CCN(C(c3ccc(F)cc3)c3ccc(F)cc3)CC2)n1.CS(=O)(=O)O` [almitrine dimesylate, 6-[4-[bis(4-fluorophenyl)methyl]piperazin-1-yl]-2-N,4-N-bis(prop-2-enyl)-1,3,5-triazine-2,4-diamine methanesulfonic acid], for which the “median PaO2/FiO2 ratio after almitrine administration” value in data set [2] (10 patients, 135 before almitrine, iv 4 then 12 μg/kg/min) is given as 215 mmHg. The “increase of median PaO2/FiO2 ratio” value in data set [2] (10 patients, from 135 before to 215 after almitrine) is reported as 80 mmHg. Moreover, in data set [2] (setting [6]), the cardiac index result is “not affected” and the right atrial pressures entry is recorded as “not affected”. The “number of patients with increased PaO2/FiO2” value in data set [2] (out of 10 human patients (median age 70), iv 4 μg/kg/min for 30-45 min, then 12 μg/kg/min for 30-45 min, intubated and ventilated) is 8. Further, in data set [3], the “median PaO2/FiO2 after almitrine” value is reported as 117 mmHg. Moreover, in data set [4] (setting [7]), the PaO2 was 67 mm Hg and the PaO2/FiO2 is 84 mmHg. Further, in data set [4] (setting [8]), the PaO2 was 130 mm Hg and the PaO2/FiO2 is 216 mmHg. In addition, in data set [4] (setting [9]), the PaO2 is 170 mm Hg and the PaO2/FiO2 is listed as 283 mmHg. In data set [5] (32 patients), the lower mortality is on record as 16% and the side-effects result is “no significant side-effects”. In data set [5] (32 patients, NO inhaled in 75% of cases), the “responders (PaO2 increase of more than 20%)” value is listed as 66%. In addition, the “mean increase in PaO2” value in data set [5] (responders) was 67%.
